According to paper PMC9607599, “Dual Targeting Ligands—Histamine H3 Receptor Ligands with Monoamine Oxidase B Inhibitory Activity—In Vitro and In Vivo Evaluation” (Pharmaceutics, 2022):
Where “and” joins values, the source holds several entries; their conditions need not be identical. Identical values can stand only once. Like-named read-outs stand apart in the source and are kept apart here.

Tests used:
[1] = tested on: rat brain (cerebral cortex, hypothalamus, striatum) monoamines; assay: HPLC-ED detection of monoamines and metabolites in rat brain tissue after sub-chronic administration; format: in vivo; settings: for 5-HIAA/5-HT ratio / DOPAC/DA ratio / HVA/DA ratio / MHPG/NA ratio: mean ± SEM
Protocol: The compound 13 was given to intact Wistar rats to verify its impact on the metabolism of biogenic amines in the brain (cerebral amines and their metabolites concentrations as well as activities of metabolizing enzymes). […] Both drugs (3 mg/kg body mass, dissolved in 0.9% NaCl) were given subcutaneously for 6 consecutive days. Control rats were injected with 200 μL of 0.9% NaCl.
Tissues were collected and properly prepared for subsequent biochemical analyzes. The brain was quickly removed from the skull and the selected structures (hypothalamus, striatum, cerebral cortex) were dissected according to the method by Glowinsky and Iversen, immediately frozen in liquid nitrogen and kept at −80 °C until assayed.
The concentration of dopamine (DA), serotonin (5-HT) and noradrenaline (NA) as well as their metabolites, i.e., 3,4-dihydroxyphenylacetic acid (DOPAC), homovanillic acid (HVA), 3-methoxy-4-hydroxyphenylglycol (MHPG) and 5-hydroxyindoleacetic acid (5-HIAA) was determined in striatum (STR), hypothalamus (HPT) and cerebral cortex (CTX) with the RP-HPLC-ED method.
Cerebral samples for HPLC analysis were homogenized using an ultrasonic homogenizer (Fisher BioBlock Scientific, France) for 15 s in 150 μL homogenization solution (0.1 M HClO4 containing 0.4 mM Na2S2O5), and centrifuged at 12,000 rpm for 15 min at 4 °C. At least 100 μL of the supernatant was transferred to chromatographic tubes and kept at –80 °C until analysis. Next, 20 μL of the filtrates was injected into the HPLC system.
The Agilent 1100 chromatographic system with Waters Spherisorb ODS-1 RP C-18 chromatographic column (4.6 × 250 mm) preceded by a Zorbax SB-C18 pre-column (4.6 × 12.5 mm) was used. Column temperature was set at 35 °C and mobile phase flow at 1 mL/min. The glassy carbon working electrode was set at +0.65 V, relative to the Ag/AgCl reference electrode. The mobile phase consisted of a phosphate buffer (3.4 pH) containing: 0.15 M NaH2PO4 x H2O, […] Na2EDTA, 0.5 mM Na2OSA, 0.5 mM LiCl and addition of methanol (10%). The chromatographic data were analyzed using ChemStation, Revision-B.03.02, Agilent software.
The concentrations of monoamines and their metabolites in each sample were calculated from the integrated chromatographic peak area and presented in nmol/gram of wet tissue. Additionally, the ratio of metabolites to their parent amines was calculated.

[2] = tested on: astrocyte cell line isolated from human cerebral cortex; assay: MTT cell viability test on human astrocytes; format: cell-based; settings: Astrocyte, human astrocytes, MTT
Protocol: The studies were performed on a commercially-available astrocyte cell line isolated from human cerebral cortex (ScienCell Research Laboratories, San Diego, CA, USA; Cat no. 1800). The cells (passage 7–8) were seeded into a 96-well plate at an amount of 10,000 cells/well and kept in accordance with the ScienCell Research Laboratories’ protocol, i.e., in astrocyte medium supplemented with 2% fetal bovine serum, 10% astrocyte growth supplement and 1% penicillin/streptomycin solution, in an atmosphere with 5% CO2 at 37 °C. The cells were allowed to grow for 24 h and then treated with increasing concentrations of test compounds (0.01–0.25 mg/mL) for 24 and 72 h. Astrocytes in the medium on each plate (regardless of the factors tested) were used as a positive control.
The viability of the astrocyte cell line was determined calorimetrically using 3-(4,5-dimethylthazol-2-yl)-2,5-diphenyltetrazolium bromide (MTT; Sigma-Aldrich Chemical Co. Ltd., Saint Louis, MO, USA) as described earlier. […] After the incubation time (24 or 72 h) with examined drugs, 50 μL MTT solution (1 mg/mL) was added to each well of the plate for another 4 h. The method is based on the reduction of a yellow tetrazolium salt (MTT) into purple formazan crystals by mitochondrial succinate-tetrazolium reductase system which is metabolically active in viable cells. At the end of the experiment, the cells were treated with 100 μL dimethyl sulphoxide, which enabled the release of the reaction product.
The absorbance was measured at 570 nm using a BioTek EL×800 microplate reader (BioTek, Winooski, Vermont, USA) and results were expressed as a percentage of the absorbance measured in control cells. The obtained values were plotted against different concentrations of each compound to calculate the viability inhibition concentration at 50% (IC50) using GraphPad Prism 6.07 (GraphPad Software, Inc., San Diego, CA, USA). The experiment was repeated in quadruplicate.
For the cytotoxicity assessment in the MTT assays, each test drug was used at 8 concentrations (range: 0.01–0.25 mg/mL).

[3] = cerebral cortex, 3 mg/kg s.c. for 6 days
[4] = not statistically significant, vs control
[5] = striatum, 3 mg/kg s.c. for 6 days
[6] = 24 h incubation, read-out: IC50 24 h
[7] = 72 h incubation, read-out: IC50 72 h

## CC1CCCN1CCCOc1ccc(C(C)(C)C)cc1.O=C(O)C(=O)O (stereo not drawn) [Compound 13, 1-(3-(4-(tert-Butyl)phenoxy)propyl)-2-methylpyrrolidine hydrogen oxalate]
[1]; CTX, 3 mg/kg s.c. for 6 days
  5-HIAA/5-HT ratio: 1.211 ± 0.202
  DOPAC/DA ratio: 0.364 ±0.080 **^,##
  HVA/DA ratio: 0.254 ± 0.015 *^,##
[1]; HPT, 3 mg/kg s.c. for 6 days
  5-HIAA/5-HT ratio: 0.810 ±0.061
  DOPAC/DA ratio: 0.359 ±0.117
  HVA/DA ratio: 0.329 ± 0.091
  MHPG/NA ratio: 0.205 ±0.030
[1]; STR, 3 mg/kg s.c. for 6 days
  5-HIAA/5-HT ratio: 2.456 ± 0.908
  DOPAC/DA ratio: 0.207 ± 0.067
  HVA/DA ratio: 0.486 ± 0.388
  MHPG/NA ratio: 0.329 ± 0.057
[1]; [3]
  5-HIAA level in CTX: 1.320 ± 0.153 nmol/g wet tissue
  5-HT level in CTX: 1.194 ± 0.139 nmol/g wet tissue
  DA content in CTX: 1.777 ± 0.128 nmol/g wet tissue
  DOPAC level in CTX: 0.562 ± 0.093 nmol/g wet tissue
  MHPG concentration in CTX: 0.897 ± 0.280 nmol/g wet tissue
  NA concentration in CTX: 1.255 ± 0.152 nmol/g wet tissue
[1]; [4]
  DA concentration in hypothalamus, in words: slight increase
  DOPAC concentration in hypothalamus, in words: decrease
[1]; [5]
  DA content in STR: 9.914 ± 1.718 nmol/g wet tissue
  DOPAC level in STR: 1.704 ± 0.187 nmol/g wet tissue
[1]; vs control
  5-HIAA level in hypothalamus, in words: statistically significant decrease
  5-HT and 5-HIAA concentrations in the striatum, in words: did not affect
  5-HT content in hypothalamus, in words: no changes
  NA and MHPG concentration in the other examined brain structures (HPT, STR), in words: no differences were found
[2]; [6]
  IC50: 230 µM and 84 µg/mL
[2]; [7]
  IC50: 142 µM and 52 µg/mL

## Clc1ccc(CCCOCCCN2CCCCC2)cc1 [Pitolisant, 3-(4-chlorophenyl)propyl 3-piperidinopropyl ether, reference compound]
[1]; 3 mg/kg s.c. for 6 days
  content in brain tissue of the examined biogenic amines and their metabolites compared to control, in words: did not show any differences
[2]; [6]
  IC50: 346 µM and 115 µg/mL
[2]; [7]
  IC50: 241 µM and 80 µg/mL
